3 compounds from article PMC7938888, “Antidepressant drugs act by directly binding to TRKB neurotrophin receptors” (Cell, 2021) can be followed below.

pKd: −log10 of the molar value. Values joined by “and” are separate entries in the source; they are usually repeats but may differ in a detail not shown here. Equal entries are not always repeated. “Also recorded” adds a separate entry of the source. Where two headings read alike, the source gives them in different places.

The subject of one series is TRKA:PLC-γ1 coupling. As to the kind of experiment: TRKA:PLC-γ1 interaction ELISA in MG87 cells expressing TRKA. The format is cell-based, mouse. For orientation: ELISA stands for enzyme-linked immunosorbent assay.
A further series deals with T1, GFP-TRKB (Mus musculus, UniProt P15209).
T1 construct: wild-type GFP-tagged full length TRKB or the GFP-tagged Y433F TRKB mutant; host or cells: HEK293T
T1 sequence (P15209 32-821): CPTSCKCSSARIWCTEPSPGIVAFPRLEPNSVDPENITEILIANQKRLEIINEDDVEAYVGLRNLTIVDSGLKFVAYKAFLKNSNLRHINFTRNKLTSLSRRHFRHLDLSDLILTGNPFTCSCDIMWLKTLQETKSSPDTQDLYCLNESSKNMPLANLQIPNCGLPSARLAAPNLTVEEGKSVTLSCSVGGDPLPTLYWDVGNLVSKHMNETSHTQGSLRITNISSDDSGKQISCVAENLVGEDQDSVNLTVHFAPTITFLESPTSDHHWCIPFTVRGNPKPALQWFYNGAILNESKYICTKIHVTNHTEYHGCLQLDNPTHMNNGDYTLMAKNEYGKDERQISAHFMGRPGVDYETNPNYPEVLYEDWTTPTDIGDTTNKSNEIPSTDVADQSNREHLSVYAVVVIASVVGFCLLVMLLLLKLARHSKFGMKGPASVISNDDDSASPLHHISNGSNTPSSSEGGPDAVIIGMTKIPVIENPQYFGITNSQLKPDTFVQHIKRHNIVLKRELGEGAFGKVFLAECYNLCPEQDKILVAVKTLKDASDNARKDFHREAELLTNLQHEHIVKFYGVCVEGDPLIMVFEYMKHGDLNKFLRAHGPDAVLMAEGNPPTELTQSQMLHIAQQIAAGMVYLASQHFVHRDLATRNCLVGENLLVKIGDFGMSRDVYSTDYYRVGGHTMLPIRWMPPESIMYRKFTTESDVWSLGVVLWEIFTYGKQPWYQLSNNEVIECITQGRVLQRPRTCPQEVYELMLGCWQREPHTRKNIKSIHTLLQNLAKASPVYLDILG
As to the kind of experiment: Microscale thermophoresis (MST) in lysates of GFP-TRKB expressing HEK293T cells. It counts as binding. Particulars: CHOL 10–100 μM, 15 min, HEK293T cell lysates; read-out: affinity of direct interaction with GFP-TRKB (MST). Background: MST reads how a fluorescent partner responds to local heating, with and without ligand.

A further series deals with surface TRKB. Kind of series: Surface TRKB ELISA in MG87.TRKB cells. It counts as cell-based, mouse. Particulars: cholesterol 20 μM/15 min. As to the method:
The surface levels of TRKB were also determined by ELISA ([Zheng et al., 2008]). Briefly, the MG87.TRKB cells or primary cortical cells from rat or mouse embryos, cultivated in clear bottom 96-well plates (ViewPlate 96, Perkin Elmer), were washed with ice-cold PBS and fixed with 100μl of 4% PFA per well. After washing with PBS and blocking with PBS containing 5% nonfat dry milk and 5% BSA, the samples were incubated with primary anti-TRKB antibody (R&D Systems, #AF1494, 1:1000 in blocking buffer) or anti-GluR1 subunit of AMPA receptors (CST, #8850, 1:2000 in blocking buffer) ON at 4°C. Following washing, the samples were incubated with HRP-conjugated anti-goat or anti-rabbit IgG (1:5000 in blocking buffer) for 1h at RT. The cells were washed 4x with 200μl of PBS for 10 min each. Finally, the chemiluminescent signal generated by reaction with ECL was analyzed in a plate reader.

The test system of series [1] is GluR1 subunit of AMPA receptors. Kind of series: Surface GluR1 ELISA in rat cortical cells. The format is cell-based. As to the method:
(§1) Briefly, the MG87.TRKB cells or primary cortical cells from rat or mouse embryos, cultivated in clear bottom 96-well plates (ViewPlate 96, Perkin Elmer), were washed with ice-cold PBS and fixed with 100μl of 4% PFA per well. […] Following washing, the samples were incubated with HRP-conjugated anti-goat or anti-rabbit IgG (1:5000 in blocking buffer) for 1h at RT. The cells were washed 4x with 200μl of PBS for 10 min each. Finally, the chemiluminescent signal generated by reaction with ECL was analyzed in a plate reader.

The next series deals with TRKB/TRKA.TM. Kind of series: Cell-free ligand binding assay, chimeric TRKB with TMD of TRKA. Particulars: biotinylated fluoxetine.
The conditions of series [2]: prefrontal cortex, individual mice; for FLX uM**: fluoxetine MW 309g/mol.
In series [3] the test system is GluR1 subunit of AMPA receptors. Kind of series: Surface GluR1 ELISA in cortical cells of TRKB.Y433F mice. It counts as cell-based, mouse. As to the method:
as §1

The test system of the next series is mice. Kind of series: Ocular dominance plasticity (monocular deprivation, intrinsic signal imaging). The format is in vivo, mouse. Particulars: adult mice, 10 mg/kg i.p. every second day for 8 days. The procedure: The “transparent skull” preparation was executed as described in literature ([Steinzeig et al., 2017]). Briefly, adult female mice (20-22 weeks old) were anesthetized via i.p. injection with a mixture containing: 0.05 mg/kg fentanyl (Hameln, Germany); 5 mg/kg midazolam (Hameln, Germany); 0.5 mg/kg medetomidine (Orion Pharma, Finland); diluted in saline (B Braun, Germany). The animals’ eyes were covered with protective-gel (Alcon, UK). The animal’s head was shaved and disinfected with ethanol and Betadine. The mouse head was then fixed on the stereotaxic frame and the temperature was maintained at 37°C. A mixture of lidocaine and adrenaline (Orion Pharma, Finland) was applied locally on the head and the skin was cut with spring scissors. The incision area was restricted 2 mm above the bregma and caudal edge of intraparietal bone. The scalp was removed and a focused air stream and a cotton swab were used to clean and stop bleeding. The periosteum was gently scratched away from the skull with an eye scalpel and the temporal muscles were pushed aside, in order to expose enough space around the area of interest to attach the metal holder. When the skull was smooth, white and dry, fat was removed from the skull rapidly by passing on it a cotton swab soaked in acetone and the air current was used to avoid its penetration into the bone. Then, with a metal stick, a thin layer of cyanoacrylate glue (Loctite 401, Henkel, Germany) was applied to the surface of the skull, in order to make the skull transparent. After waiting 10 minutes for the glue to dry, a first layer of acryl was applied on the skull surface with a brush. Acryl was used to prolong the life of the transparency and was prepared by stirring acrylic powder (EUBECOS, Germany) with methacrylate liquid (Densply, Germany) until a nail-polish consistency was reached. After 30 minutes, a second layer of acryl was applied and was left to dry overnight. Finally, the animals were injected s.c. with 5 mg/kg Carprofen (ScanVet, Nord Ireland) for postoperative analgesia and i.p. with a wake-up composed by: 1.2 mg/kg Naloxone (Orpha-Devel Handels und Vertriebs GmbH, Austria), opioid receptor antagonist; 0.5 mg/kg Flumazenil (Hameln, Germany), GABA-A receptor antagonist; 2.5 mg/kg Atipamezole (Vet Medic animal Health Oy, Finland), adrenergic receptor antagonist; diluted in saline (B Braun, Germany). The next day, isoflurane at 4% was used for a couple of minutes to induce the anesthesia and then it was reduced at 2% for the procedure. The acryl layer was polished only on the area of interest, using a hand drill with a polishing bit. […]
Optical imaging. The saturation of haemoglobin in the primary visual cortex of the right hemisphere was measured to assess cortical activity ([Cang et al., 2005]; [Kalatsky and Stryker, 2003]). […]

Description for GFP-TRKB: Microscale Thermophoresis - MST - experiments were performed using Monolith NT.115 (Blue/Red) instrument (NanoTemper Technologies GmbH, Germany). The cell lysates of HEK293T cells expressing GFP-TRKB were used as a source of fluorescently labeled TRKB. HEK293T cells were transfected with GFP-fused TRKB as described and lysed 24h after transfection. […] The lysates of non-transfected HEK293T cells were used to evaluate background fluorescence, which appeared to be undetectable in current MST set up. […] The measurements were done in premium coated capillaries (NanoTemper Technologies GmbH, MO-K025) using LED source with 470nm and 50% infrared-laser power at 25°C. Hill model was used to evaluate binding affinity, each data point represents mean ΔFnorm values from four independent experiments. The bound fraction of the GFP-TRKB was determined and the fitting was performed using the Hill model method incorporated by the MO Affinity Analysis v2.3 software (NanoTemper Technologies).

Regarding `CC(C)CCC[C@@H](C)[C@H]1CC[C@H]2[C@@H]3CC=C4C[C@@H](O)CC[C@]4(C)[C@H]3CC[C@]12C` [CHOL, cholesterol], in the series on TRKA:PLC-γ1 coupling, the “cholesterol-induced TRKA:PLC-γ1 coupling” value was “Lack of effect”. Moreover, on GFP-TRKB, the pKd is around 4.70. Further, the “cell surface translocation of TRKB” value with surface TRKB is reported as “increased cell surface translocation of TRKB”.

As to `CNCCC(Oc1ccc(C(F)(F)F)cc1)c1ccccc1` (stereo not drawn) [FLX, fluoxetine], in series [1], the “cell surface localization of GluR1 subunits of AMPA receptors” value is “increased cell surface localization of GluR1 subunits”. Besides, the “binding to chimeric TRKB with the TMD of TRKA” value in the series on TRKB/TRKA.TM was “failed to bind; also recorded: very low”. Further, the FLX in series [2] (genotype het, 15mg/kg in drinking water 21 days, 15 mg/kg) is 1.368 µg/mL and 0.379 µg/mL and 2.739 µg/mL; in series [2] (genotype het, brain density 1.045g/ml) it was 9.69 µg/mL and 6.28 µg/mL and 21.21 µg/mL; in series [2] (genotype wt, 15mg/kg in drinking water 21 days, 15 mg/kg), 1.575 µg/mL and 1.642 µg/mL and 1.024 µg/mL and 1.497 µg/mL and 0.393 µg/mL; in series [2] (genotype wt, brain density 1.045g/ml), 4.03 µg/mL and 11.14 µg/mL and 6.93 µg/mL and 10.29 µg/mL and 9.31 µg/mL. Further, the “FLX uM**” value in series [2] (genotype het) is 31.36 µM and 20.34 µM and 68.63 µM; in series [2] (genotype wt) it was 13.04 µM and 36.06 µM and 22.42 µM and 33.30 µM and 30.13 µM. Besides, the “FLX ug/g wet tissue” value was 9.273 ug/g wet tissue and 6.013 ug/g wet tissue and 20.292 ug/g wet tissue in series [2] (genotype het); 3.856 ug/g wet tissue and 10.662 ug/g wet tissue and 6.629 ug/g wet tissue and 9.846 ug/g wet tissue and 8.908 ug/g wet tissue in series [2] (genotype wt). Also, the “increase in surface GluR1 in neurons from TRKB.Y433F mutant mice” value in series [3] is listed as “prevented”.

Consider `CNC1(c2ccccc2Cl)CCCCC1=O` (stereo not drawn) [KET, ketamine], for which the “shift in ocular dominance after 7-day monocular deprivation” value in the series with mice is “significant shift in OD”.
